Measurements reported in patent publication US20070202138A1, “ANTIMICROBIAL COMPOSITIONS AND METHOD” (BIOFILM INNOVATIONS GROUP, LLC, priority 2006, published 2007).
Converted amounts (≈) assume the structure as drawn.

Key:
in vitro = details: mouse
Description: (§1) The cells are grown in humidified incubators at 37° C. in an atmosphere of 5% carbon dioxide/air (v/v).

[1] = in vitro cytotoxicity, plating efficiency; details: mouse
Description: as §1

SMILES	CC50 (in vitro) [µg/mL]	CC50 [1] [µg/mL]
CC(=O)Nc1ccc(O)cc1 [acetaminophen]	1000 (≈ 6.62 mM)	
CC(=O)Oc1ccccc1C(=O)O [aspirin]	1500 (≈ 8.33 mM)	
O=BOB(O)OB(O)OB=O [borax]		2000 (≈ 12.7 mM)
